Data set [1] deals with HT1080 cells. The data set is described as follows: Cell cycle analysis by propidium iodide/FACS, HT1080 cells. It is filed as cell-based, human. As to conditions: 16 h. The protocol:
Cell Cycle Analysis. HT1080 cells ([…]) were treated with triptolide (20 ng/ml) and/or doxorubicin (100 nM) for 16 h. Cells were then harvested and washed with cold PBS. The cells were resuspended gently in 5 ml of 100% ethanol and fixed at 25° C. for 1 h. After washing with PBS, the cells were incubated with DNase-free RNase A (200 μg/ml) at 37 ° C. for 1 h and washed with PBS. Propidium iodide (10 μg/ml) was added, and the cells were incubated at 37° C. for 5 min. Cells were separated by sonicating at 20% output level for 15 s using a VirSonic 50 sonicator (Vitis Inc., NY). The samples were then sorted by FACS, and cell cycle analysis was done with FlowJo (version 3.0.3) (Tree Start, Inc, San Carlos, Calif.).

The subject of data set [2] is Bax. The data set is described as follows: Bax protein level by immunoblot in MCF-7 cells. Format: cell-based, human. As to conditions: triptolide-treated MCF-7 cells. Here is the method: Immunoblotting. At 8 hours after triptolide and/or doxorubicin treatment cells were harvested at the times indicated and lysed using HNET buffer (50 mM HEPES pH 7.5, 100 mM NaCl, 1 mM EGTA, and 1% Triton X-100) supplemented with 1 mM DTT, 1 mM PMSF and protease inhibitors cocktail (Boehringer Mannheim, Germany). 35 μg of protein was loaded on 10% SDS-PAGE followed by transferring to PVDF membrane. Immunoblotting was performed as previously described using a p53 mouse monoclonal antibody from Oncogene Research Products (Lee et al. (1999) J Biol Chem 274:13451-5).
Immunoblot analysis using other antibodies was performed as described above. The band intensity was measured by NIH Image 1.62.
A general note: Immunoblotting shows a protein as a band on a membrane.

Data set [3] has as its system phosphorylated p53. Nature of the data set: p53 phosphorylation by in vivo [32P]orthophosphate labeling of HT1080 cells. Format: cell-based, human. As to conditions: HT1080, triptolide 20 ng/ml, 3 h. Here is the method:
In Vivo [^32P]Orthophosphate Labeling. Subconfluent HT1080 cells were pretreated with 20 ng/ml triptolide for 2 h in Dulbecco's modified Eagle's medium supplemented with 10% fetal bovine serum and antibiotics. These cells were washed twice with 37 ° C. labeling medium (Dulbecco's modified Eagle's medium, 10% fetal bovine serum dialyzed against phosphate-free) lacking sodium phosphate. Cells were then labeled for an additional 1 h with the labeling medium containing 1 mCi/ml [32P]orthophosphate and 20 ng/ml triptolide. The labeling medium was removed, and the cells were washed three times with cold Tris-buffered saline (TBS). The cells were scraped in 1 ml of lysis buffer (1% Nonidet P40, 1% sodium deoxycholate, 0.1% SDS, 0.15 M NaCl, 0.01 M sodium phosphate, pH 7.2, 2 mM EDTA, 50 mM sodium fluoride, 0.2 mM sodium vanadate, and 100 units/ml aprotinin) and kept on ice for 10 min. Lysates were passed through 27-gauge needles and spun at 11,000×g for 10 min, and 100 μg of the supernatants were subjected to immunoprecipitation with p53 mAb (Ab-6) conjugated with agarose for 4 h. Samples were then spun at 2500 rpm at 4° C. for 5 min and washed three times with the lysis buffer. The pellets were boiled in SDS sample buffer and analyzed on 10% SDS-PAGE. The bands were visualized and quantified by Optiquant Phosphorlmager.

For data set [4], the system named is p21 mRNA. The data set is described as follows: p21 mRNA by Northern blot in HT1080 cells. Format: cell-based, human. As to conditions: triptolide 20 ng/ml. The protocol:
Northern Blot Analysis. RNA was prepared from HT1080 cells using RNeasy Mini Kit from Qiagen Inc. (Valencia, Calif.). cDNAs for Northern blot analysis for p21 and p53 were prepared using RT-PCR with […] of total RNA. The following primer pairs were used: p53, (SEQ ID NO:11) 5′-[…]-3′ and (SEQ ID NO:12) 5′-[…]-3′; p21, (SEQ ID NO:13) 5′-[…]-3′ and (SEQ ID NO:14) 5′-[…]-3′; and glyceraldehyde-3-phosphate dehydrogenase, (SEQ ID NO:15) 5′-[…]-3′ and 5′-(SEQ ID NO:16) […]-3′.

Data set [5] concerns Dx5 MDR human tumor cells. The data set is described as follows: Nude mouse xenograft, established Dx5 MDR tumors. Format: in vivo, nude mice. The protocol: Nude mouse xenograft model. Female NCr nude mice were purchased from Taconic, Germantown, N.Y., and were generally 20-24 grams when used. Mice were kept in autoclaved filter-top microisolator cages with autoclaved water and sterile food ad lib. The cages were maintained in an isolator unit providing filtered air (Lab Products, Inc., Maywood, N.J.). Tumor cells were grown and harvested as described above. NCr nude mice were injected intradermally with 5×10^6 tumor cells. In some experiments, treatment was initiated on the day of tumor cell implantation. […] Mice were treated IP daily for 5 days per week.
MDR is a factor in failing to achieve durable chemotherapeutic efficacy in the clinical setting. Using an MDR tumor cell line Dx5 the efficacy of PG490-88 was tested. Nude mice were implanted intradermally with Dx5 tumor cells, and treatment was initiated when the tumors reached approximately 100 mm^3.
The data in FIG. 4 represents the measurement of Dx5 tumor volume on day 14 after the initiation of treatment. Nude mice bearing xenografts of Dx5 MDR human tumor cells were treated daily as shown. The data represent the means and the standard errors of the means of the tumor volumes as percent of the day 0 tumor volumes for each animal measured day 3, 7, 10 and 14 days after the initiation of treatment. There were 5 mice in the groups receiving saline or PG490-88 plus doxorubicin, and 4 mice in the groups receiving PG490-88 or doxorubicin alone.

Data set [6] deals with HT1080 tumor cells. Nature of the data set: Nude mouse xenograft, established HT1080 tumors. It is filed as in vivo, nude mice. As to conditions: PG490-88 0.75 mg/kg IP days 0-5 and 7-11, CPT-11 11 mg/kg IV days 1, 5, 9. The protocol:
Mice. […] Nude mouse xenograft model. HT1080 tumor cells were grown in tissue culture flasks and harvested using EDTA and trypsin. Cells were centrifuged and the concentration of viable cells was appropriately adjusted. […] Tumor size was monitored after tumor cell implantation by measuring the width, length and thickness of the tumors and using a formula to calculate the volume. […] Control mice were left untreated. […] Combination therapy mice received both PG490-88 and CPT-11 treatments.

Data set [7] is described as follows: Observable toxicity in treated mice (body weight, activity, respiration). Format: in vivo. Here is the method:
PG490-88 (0.75 mg/kg) as measured by a change in body weight, altered activity or labored respiration.

This note sets out measurements from patent US6599499B1, “Uses of diterpenoid triepoxides as an anti-proliferative agent” (priority 1999, dated 2003).

Molecules are shown by their SMILES.

In the case of `CC(C)[C@]12O[C@H]1[C@@H]1O[C@]13[C@]1(O[C@H]1C[C@H]1C4=C(CC[C@@]13C)C(=O)OC4)[C@@H]2O` [PG490, triptolide], in data set [1] (HT1080, triptolide 20 ng/ml, 23.7% in unstimulated cells), the “cells in S phase” value came to 46%. In data set [2], the “change in Bax” value is “no significant change”. Besides, the “increase in phosphorylated p53 compared with untreated cells” value in data set [3] is 2-3 fold. Besides, the “effect on doxorubicin-mediated induction of p21 mRNA” value in data set [4] is listed as “completely blocked”.

With `CC(C)[C@]12O[C@H]1[C@@H]1O[C@]13[C@]1(O[C@H]1C[C@H]1C4=C(CC[C@@]13C)C(=O)OC4)[C@@H]2OC(=O)CCC(=O)[O-].[Na+]` [PG490-88, 14-succinyl triptolide sodium salt], the “growth of one tumor compared with its day 0 value” in data set [5] (PG490-88 0.75 mg/kg/day, one of four mice) was 2.8 fold. Also, the “reduction of mean tumor size compared to day 0 values” in data set [5] (PG490-88 0.75 mg/kg/day, three of the four mice) stood at 28%. Also, in data set [6], the “TV Mean Day 4” value is 167, the “TV Mean Day 7” value is listed as 208, the “TV Mean Day 10” value was determined as 247 and the “TV Mean Day 14” value stood at 532. Moreover, the “TV Mean Day 0” value in data set [6] (baseline) is 107. Also, in data set [7] (PG490-88 0.75 mg/kg), the “observable toxicity (change in body weight, altered activity or labored respiration)” value is given as “no observable toxicity”. Also, the tolerability entry in data set [7] (triptolide dosage on molar comparison to PG490-88 70 μg/mouse/week) was “well tolerated”.

On to `COc1cccc2c1C(=O)c1c(O)c3c(c(O)c1C2=O)C[C@@](O)(C(=O)CO)C[C@@H]3O[C@H]1C[C@H](N)[C@H](O)[C@H](C)O1` [doxorubicin, reference compound], for which the “cells in G2/M” value in data set [1] (HT1080, doxorubicin 100 nM alone or with triptolide 20 ng/ml, 11% without treatment) is on record as 49.8%. Also, the “increase of mean tumor volume over 14 days” value in data set [5] (doxorubicin alone 2 mg/kg/day) is listed as “more than 10 fold”.
